These results are taken from ChEMBL document CHEMBL1201862, “PubChem BioAssay data set” (2004).

Active and inactive are the calls of the source.

The nature of assay [1]: blockers of CAL PDZ–TMR peptide complex – biochemical, fluorescence polarization, untagged CAL PDZ, cherry-pick, set 2, dose response (AID 602254). Type of assay: functional.
The target in assay [2] is Luciferin 4-monooxygenase (Photinus pyralis, UniProt P08659). As to the kind of experiment: inhibition of purified Photinus pyralis luciferase – biochemical, luminescence, dose response (AID 1891).
Assay [3] in a line: Luminescence Cell-Based Dose Confirmation HTS to Identify Inhibitors of Platelet Dense Granule Release. [Related pubchem assays: 1663 (Primary HTS), 1678 (Summary of Project)]. The class given is functional.
Assay [4] addresses T1, Melanocortin receptor 4 (Homo sapiens, UniProt P32245). As to the kind of experiment: inhibitors of MC4R cAMP signaling – cell-based, TR-FRET, biased antagonists, dose response (AID 602298).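 Note: antagonist potency against agonist-stimulated cAMP production.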 The class given is functional.
Assay [5] can be described thus: cAMP pathway inhibition in counterscreen cell line – TR-FRET cAMP detection, counter-screen for MC4R biased antagonist project, dose response (AID 602305).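 Note: U2OS cells stimulated with forskolin near its EC80 as the cAMP inducer; potency is for inhibition of forskolin-stimulated cAMP signaling.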 The class given is functional, cell-based. For orientation: Counterscreens check selectivity or assay interference.
Assay [6] addresses T2, DNA repair protein RAD52 homolog (Homo sapiens, UniProt P43351).
T2 sequence (P43351 whole entry): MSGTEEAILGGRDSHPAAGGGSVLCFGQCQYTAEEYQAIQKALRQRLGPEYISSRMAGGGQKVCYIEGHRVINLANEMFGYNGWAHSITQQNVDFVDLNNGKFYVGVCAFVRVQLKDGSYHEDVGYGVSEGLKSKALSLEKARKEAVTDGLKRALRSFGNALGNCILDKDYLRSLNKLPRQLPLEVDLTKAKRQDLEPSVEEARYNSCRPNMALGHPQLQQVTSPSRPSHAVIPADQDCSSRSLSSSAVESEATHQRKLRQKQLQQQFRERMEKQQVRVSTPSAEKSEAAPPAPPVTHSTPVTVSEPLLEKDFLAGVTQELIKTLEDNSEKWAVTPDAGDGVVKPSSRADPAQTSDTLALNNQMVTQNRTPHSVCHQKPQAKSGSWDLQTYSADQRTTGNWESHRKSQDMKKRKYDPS
The class given is functional, biochemical.

A further assay deals with Prothrombin (Bos taurus, UniProt P00735). As to the kind of experiment: thrombin protease inhibitors – biochemical, fluorescence polarization, uHTS hits, dose response (AID 602369). The class given is functional. Background: In fluorescence polarisation assays a small probe gives low polarisation when free and higher when bound to something large.
For assay [7], the target named is T3, Rac GTPase-activating protein 1 (Homo sapiens, UniProt Q9H0H5).
T3 sequence (Q9H0H5 whole entry): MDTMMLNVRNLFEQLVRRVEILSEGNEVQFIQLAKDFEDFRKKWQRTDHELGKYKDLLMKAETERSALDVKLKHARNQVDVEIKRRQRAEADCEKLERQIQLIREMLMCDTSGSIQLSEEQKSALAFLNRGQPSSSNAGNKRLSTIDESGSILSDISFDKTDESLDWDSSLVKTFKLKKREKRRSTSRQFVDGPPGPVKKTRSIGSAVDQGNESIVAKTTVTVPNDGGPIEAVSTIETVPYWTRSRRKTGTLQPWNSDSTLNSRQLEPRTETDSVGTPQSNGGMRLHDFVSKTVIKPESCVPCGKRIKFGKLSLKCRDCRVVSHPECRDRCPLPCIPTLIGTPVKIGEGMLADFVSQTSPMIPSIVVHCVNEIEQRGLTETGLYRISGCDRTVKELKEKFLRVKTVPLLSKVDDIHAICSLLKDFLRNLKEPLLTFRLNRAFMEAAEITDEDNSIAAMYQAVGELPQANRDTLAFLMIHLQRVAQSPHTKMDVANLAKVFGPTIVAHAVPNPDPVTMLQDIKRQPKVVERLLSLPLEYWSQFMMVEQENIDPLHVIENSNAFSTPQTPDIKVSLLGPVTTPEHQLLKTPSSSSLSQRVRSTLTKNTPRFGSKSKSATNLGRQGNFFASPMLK
As to the kind of experiment: blockers of MgcRacGAP-driven Rac1 GTP hydrolysis – biochemical, ADP Hunter fluorescence, primary and confirmatory, confirmation (AID 624330). The class given is functional.

Assay [8] concerns the target T1, Melanocortin receptor 4. The class given is functional, cell-based.
Assay [9] is described as follows: viability loss in HeLa cells – cytotoxicity control for MgcRacGAP inhibitor project, dose response (AID 624300). Type of assay: functional.
Assay [10] deals with 26S proteasome non-ATPase regulatory subunit 14 (Homo sapiens, UniProt O00487). Nature of the assay: inhibition of proteasome subunit RPN11 – biochemical, fluorescence polarization, uHTS hits, confirmation (AID 602368). Type of assay: functional.
Assay [11] has as its target Heat shock protein HSP 90-alpha (Homo sapiens, UniProt P07900). Type of assay: functional, organism-based.
In assay [12] the target is 72 kDa type IV collagenase (Homo sapiens, UniProt P08253). Nature of the assay: Dose Response validation of uHTS RPN11 inhibitor hits using a MMP-2 Fluorescence assay. Type of assay: functional.
In a further assay the target is T4, Caspase-3 (Homo sapiens, UniProt P42574).
T4 sequence (P42574 whole entry): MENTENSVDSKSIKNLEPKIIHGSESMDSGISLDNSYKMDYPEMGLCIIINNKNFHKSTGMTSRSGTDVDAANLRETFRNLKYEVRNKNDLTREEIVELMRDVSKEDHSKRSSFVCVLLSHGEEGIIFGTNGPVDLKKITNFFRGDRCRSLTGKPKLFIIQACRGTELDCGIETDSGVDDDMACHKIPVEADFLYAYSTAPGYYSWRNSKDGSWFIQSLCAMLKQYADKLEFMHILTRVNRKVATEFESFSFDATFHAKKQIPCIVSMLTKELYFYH
As to the kind of experiment: inhibition of recombinant caspase-3 activity – biochemical, luminescence, set 2, selectivity assay for SENP protease inhibitor project, SAR follow-up (AID 588599). Type of assay: functional.

In assay [13] the target is T5, Sentrin-specific protease 8 (Homo sapiens, UniProt Q96LD8).
T5 sequence (Q96LD8 whole entry): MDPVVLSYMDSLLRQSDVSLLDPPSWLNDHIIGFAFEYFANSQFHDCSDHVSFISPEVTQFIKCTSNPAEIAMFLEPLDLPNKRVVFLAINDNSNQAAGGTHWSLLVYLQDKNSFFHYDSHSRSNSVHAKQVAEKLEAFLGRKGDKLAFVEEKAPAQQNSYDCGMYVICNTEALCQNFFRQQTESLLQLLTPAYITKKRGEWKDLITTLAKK
Nature of the assay: inhibition of sentrin protease 8 – biochemical, luminescence, set 2, SAR follow-up (AID 588601). The class given is functional.

Assay [14] addresses T6, Sentrin-specific protease 7 (Homo sapiens, UniProt Q9BQF6).
T6 sequence (Q9BQF6 whole entry): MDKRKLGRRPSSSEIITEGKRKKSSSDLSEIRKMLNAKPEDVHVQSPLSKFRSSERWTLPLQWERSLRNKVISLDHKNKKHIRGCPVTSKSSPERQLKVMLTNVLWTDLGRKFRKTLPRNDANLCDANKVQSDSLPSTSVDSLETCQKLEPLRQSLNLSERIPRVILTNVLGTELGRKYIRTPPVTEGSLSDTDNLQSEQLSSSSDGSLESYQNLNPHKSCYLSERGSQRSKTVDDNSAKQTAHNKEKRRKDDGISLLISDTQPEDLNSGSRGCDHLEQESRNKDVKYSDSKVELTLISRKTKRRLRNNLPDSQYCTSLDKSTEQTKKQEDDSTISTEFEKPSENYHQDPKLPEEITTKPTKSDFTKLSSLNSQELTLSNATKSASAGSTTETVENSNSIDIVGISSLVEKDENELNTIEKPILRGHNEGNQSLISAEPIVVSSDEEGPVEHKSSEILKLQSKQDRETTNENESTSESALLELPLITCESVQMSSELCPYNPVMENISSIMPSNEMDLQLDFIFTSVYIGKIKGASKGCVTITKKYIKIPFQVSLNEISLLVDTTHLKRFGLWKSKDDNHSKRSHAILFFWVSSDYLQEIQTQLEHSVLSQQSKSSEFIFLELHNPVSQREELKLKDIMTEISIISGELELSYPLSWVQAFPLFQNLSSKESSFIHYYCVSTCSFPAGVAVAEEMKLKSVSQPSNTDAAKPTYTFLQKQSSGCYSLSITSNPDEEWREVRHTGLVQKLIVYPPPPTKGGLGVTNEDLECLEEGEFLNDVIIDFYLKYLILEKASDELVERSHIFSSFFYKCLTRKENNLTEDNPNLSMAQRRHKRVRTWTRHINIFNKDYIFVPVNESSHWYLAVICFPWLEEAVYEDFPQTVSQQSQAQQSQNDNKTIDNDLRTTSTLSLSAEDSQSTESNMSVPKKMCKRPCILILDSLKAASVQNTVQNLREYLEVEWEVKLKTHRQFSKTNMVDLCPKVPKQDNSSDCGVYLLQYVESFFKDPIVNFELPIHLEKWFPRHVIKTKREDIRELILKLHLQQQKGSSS
As to the kind of experiment: inhibition of human SENP7 cleavage activity – biochemical, luminescence, set 2, SAR follow-up (AID 588600). The class given is functional.

Assay [15] deals with T7, Sentrin-specific protease 6 (Homo sapiens, UniProt Q9GZR1).
T7 sequence (Q9GZR1 whole entry): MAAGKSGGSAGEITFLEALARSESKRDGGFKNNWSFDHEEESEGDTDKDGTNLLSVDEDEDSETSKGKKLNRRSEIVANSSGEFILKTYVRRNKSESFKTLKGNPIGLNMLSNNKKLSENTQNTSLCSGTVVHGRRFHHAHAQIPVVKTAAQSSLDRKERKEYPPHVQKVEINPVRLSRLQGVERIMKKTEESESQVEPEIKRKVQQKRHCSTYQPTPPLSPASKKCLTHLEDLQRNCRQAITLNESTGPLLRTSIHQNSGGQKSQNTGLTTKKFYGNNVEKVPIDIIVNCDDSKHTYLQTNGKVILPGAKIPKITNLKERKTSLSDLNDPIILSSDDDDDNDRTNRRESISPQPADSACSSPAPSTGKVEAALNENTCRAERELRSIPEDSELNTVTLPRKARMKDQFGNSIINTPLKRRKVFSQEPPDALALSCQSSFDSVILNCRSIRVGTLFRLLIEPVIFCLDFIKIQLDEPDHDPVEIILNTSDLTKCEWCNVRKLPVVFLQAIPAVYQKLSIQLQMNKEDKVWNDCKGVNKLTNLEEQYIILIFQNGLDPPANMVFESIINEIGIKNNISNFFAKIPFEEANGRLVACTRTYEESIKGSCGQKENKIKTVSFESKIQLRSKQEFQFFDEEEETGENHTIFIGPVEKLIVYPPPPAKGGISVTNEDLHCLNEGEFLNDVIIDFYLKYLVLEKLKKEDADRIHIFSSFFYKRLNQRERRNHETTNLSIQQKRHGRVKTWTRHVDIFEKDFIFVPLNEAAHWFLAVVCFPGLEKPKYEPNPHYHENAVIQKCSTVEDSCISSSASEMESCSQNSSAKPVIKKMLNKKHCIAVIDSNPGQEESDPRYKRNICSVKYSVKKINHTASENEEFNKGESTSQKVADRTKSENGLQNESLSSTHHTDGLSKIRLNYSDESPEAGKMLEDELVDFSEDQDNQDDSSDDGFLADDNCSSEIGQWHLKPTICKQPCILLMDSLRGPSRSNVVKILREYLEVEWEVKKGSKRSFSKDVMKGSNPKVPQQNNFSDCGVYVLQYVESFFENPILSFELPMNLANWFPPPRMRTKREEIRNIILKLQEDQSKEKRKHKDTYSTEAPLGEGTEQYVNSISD
Nature of the assay: inhibition of human SENP6 catalytic domain – biochemical, luminescence, set 2, SAR follow-up (AID 588598). Type of assay: functional.

A word on the AC50: it is the midpoint of the concentration-response curve, whichever way the signal moves. One may read the EC50 as the midpoint of the concentration-response curve. The term IC50 denotes the concentration needed to halve the response being measured. Usually CC50 stands for the concentration that lowers cell viability or growth by half.

T1 sequence (P32245 whole entry): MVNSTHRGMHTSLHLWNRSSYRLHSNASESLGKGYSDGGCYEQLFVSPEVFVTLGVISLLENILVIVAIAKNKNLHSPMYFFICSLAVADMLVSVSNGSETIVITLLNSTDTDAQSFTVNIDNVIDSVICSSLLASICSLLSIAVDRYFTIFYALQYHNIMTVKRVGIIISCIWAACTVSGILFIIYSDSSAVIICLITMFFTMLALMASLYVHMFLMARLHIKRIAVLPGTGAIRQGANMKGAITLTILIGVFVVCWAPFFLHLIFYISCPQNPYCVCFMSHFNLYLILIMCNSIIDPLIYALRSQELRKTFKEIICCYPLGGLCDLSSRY
Sequence of 26S proteasome non-ATPase regulatory subunit 14 (O00487 whole entry): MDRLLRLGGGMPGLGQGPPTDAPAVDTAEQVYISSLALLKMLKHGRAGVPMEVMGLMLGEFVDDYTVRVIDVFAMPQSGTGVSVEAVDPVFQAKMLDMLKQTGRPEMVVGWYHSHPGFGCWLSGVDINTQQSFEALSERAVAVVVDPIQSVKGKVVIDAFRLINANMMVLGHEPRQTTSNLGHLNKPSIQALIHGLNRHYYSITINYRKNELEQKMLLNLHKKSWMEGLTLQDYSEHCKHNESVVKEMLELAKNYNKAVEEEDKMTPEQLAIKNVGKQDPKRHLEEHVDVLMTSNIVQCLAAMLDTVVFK
Sequence of 72 kDa type IV collagenase (P08253 whole entry): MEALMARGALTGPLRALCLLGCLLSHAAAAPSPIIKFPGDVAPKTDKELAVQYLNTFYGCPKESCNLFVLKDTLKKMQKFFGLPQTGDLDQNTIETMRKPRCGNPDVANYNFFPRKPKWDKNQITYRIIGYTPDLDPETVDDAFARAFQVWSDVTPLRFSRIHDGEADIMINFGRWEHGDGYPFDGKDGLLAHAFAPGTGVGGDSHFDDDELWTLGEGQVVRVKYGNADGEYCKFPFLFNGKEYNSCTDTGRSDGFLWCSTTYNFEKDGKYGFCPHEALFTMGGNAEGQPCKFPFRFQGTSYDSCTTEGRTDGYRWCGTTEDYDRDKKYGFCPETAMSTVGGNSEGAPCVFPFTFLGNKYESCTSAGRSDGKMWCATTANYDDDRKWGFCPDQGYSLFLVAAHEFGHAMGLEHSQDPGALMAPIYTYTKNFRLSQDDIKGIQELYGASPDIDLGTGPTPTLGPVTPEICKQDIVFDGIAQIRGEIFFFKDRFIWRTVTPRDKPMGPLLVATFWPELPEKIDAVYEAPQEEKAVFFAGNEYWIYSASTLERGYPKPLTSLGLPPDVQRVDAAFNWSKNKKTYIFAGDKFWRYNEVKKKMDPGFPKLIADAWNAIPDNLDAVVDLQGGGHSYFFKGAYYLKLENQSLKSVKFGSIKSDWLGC
Sequence of Luciferin 4-monooxygenase (P08659 whole entry): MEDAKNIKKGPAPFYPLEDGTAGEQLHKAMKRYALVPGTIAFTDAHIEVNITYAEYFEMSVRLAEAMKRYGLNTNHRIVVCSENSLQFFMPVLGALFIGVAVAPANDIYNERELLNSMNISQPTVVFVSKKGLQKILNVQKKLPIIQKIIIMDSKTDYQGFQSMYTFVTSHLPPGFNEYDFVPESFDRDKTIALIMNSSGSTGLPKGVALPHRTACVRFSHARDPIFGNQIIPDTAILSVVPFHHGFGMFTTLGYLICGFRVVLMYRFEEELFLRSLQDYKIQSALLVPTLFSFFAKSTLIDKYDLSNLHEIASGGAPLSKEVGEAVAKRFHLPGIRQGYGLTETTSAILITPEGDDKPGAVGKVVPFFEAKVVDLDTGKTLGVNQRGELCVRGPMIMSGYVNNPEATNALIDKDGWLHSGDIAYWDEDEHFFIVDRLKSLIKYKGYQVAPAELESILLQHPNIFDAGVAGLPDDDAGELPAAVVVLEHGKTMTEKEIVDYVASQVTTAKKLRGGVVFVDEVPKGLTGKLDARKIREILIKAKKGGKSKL

Take `COC(=O)c1cc(S(=O)(=O)NCCc2ccc(SC)cc2)c[nH]1`: in [1], the AC50 is 112 µM (active). Also, the EC50 in assay [2] and in assay [3] was > 112 µM (not active) throughout.
Regarding `CCOC(=O)c1sc(NC(=O)CCN2CCN(CC)CC2)c(C(=O)OCC)c1C`, the IC50 (at Melanocortin receptor 4 [4]; in [5]) was > 64.6 µM (inactive) in each case.
With `CCCCCCCCCCCCCCCC[N+](C)(C)Cc1ccc(F)cc1`, the AC50 in assay [6] is 5.28 µM (active); in assay [11], 4.51 µM (active). The IC50 on Prothrombin was 37.4 µM (active); in assay [7], 83.4 µM (active); in [10] it was 61.1 µM (active); at Melanocortin receptor 4 [4], 13.7 µM (inactive); in assay [12] it was 91.8 µM (active); in assay [5], 59.8 µM (inactive). Further, on Melanocortin receptor 4 [8], the EC50 was > 89.2 µM (inactive). Also, the CC50 in assay [9] was 15.7 µM (active).
Take `COc1ccc(/C=C(/C#N)c2nc(-c3ccccc3C)no2)cc1O`: the IC50 (at Caspase-3; in assay [13]; in [14]; in [15]) was > 99 µM (inactive) throughout.
For `Cc1[nH]c2ccccc2c1C(=O)C(=O)NCCn1ccc2ccccc21`, the IC50 (at Caspase-3; in assay [13]; in [14]; in assay [15]) was > 99 µM (inactive) each time.
